# Results: patent publication US5750534A (priority 1996, dated 1998)
# “Also recorded” adds a separate entry of the source. Where a name gives a salt, the structure may show the parent alone. Read-outs that look alike come from different tables or passages of the source.
# Columns and labels:
# [1] = system: Sprague-Dawley rats (nociceptive threshold); type: in vivo, rat
# [2] = plasma half time; FIG. 18
# [3] = cited from earlier work; for dosing interval: Hemstrom et al.
# [4] = system: Sprague-Dawley rats (antinociceptive threshold); assay: Rat cold ethanol tail-flick test, pharmacodynamic study of nalbuphine arachidate; type: in vivo; details: for analgesic effect (significance): FIGS. 21 and 22
# humans = assay: Analgesic effect for human intramuscular injection; type: in vivo; details: human i.m.
# patients (analgesia) = details: 10 mg/65 kg (0.154 mg/kg) i.m., 65-kg patient; cited from earlier work
# [5] = Shafer et al., Anesthesiology 1991; cited from earlier work
# Water solubility = type: physicochemical
# humans (analgesia) = assay: Estimate of human analgesic duration and dose from rat/human dose ratio; details: 1.56 μM/kg i.m., calculated from rat
# [6] = 25 micromole/kg i.m., prodrugs in sesame oil, Table 2 / FIG. 17
# [7] = 25 micromole/kg i.m., Table 2 / FIG. 17
smiles,measurement,setting,value
CCCCCCCCCC(=O)Oc1ccc2c3c1O[C@H]1[C@@H](O)CC[C@@]4(O)[C@@H](C2)N(CC2CCC2)CC[C@]314 [nalbuphine decanoate],50% analgesic effect (time),[1]; [6],6.7 days
same,20% analgesic effect (time),"[1]; 25 micromole/kg i.m., Table 2",7.5 D
same,10% analgesic effect (time),[1]; [7],8.2 D
same,increase of duration over nalbuphine hydrochloride,[2],30 times
O=C(CCCN1CCC(O)(c2ccc(Cl)cc2)CC1)c1ccc(F)cc1 [haloperidol],dosing interval,[3],2-4 times a day
"Oc1ccc2c3c1O[C@H]1[C@@H](O)CC[C@@]4(O)[C@@H](C2)N(CC2CCC2)CC[C@]314 [nalbuphine hydrochloride, reference compound]",analgesic duration (Discussion),"[4]; 25 μM/kg (9.86 mg/kg) i.m., rats",about 2 hours
same,duration of analgesic effect,"[4]; 25 μM/kg i.m., in 0.9% saline, rats",4 h
same,analgesic effect (significance),[4]; 25 μM/kg i.m.,significant analgesic effects
same,10% analgesic effect (time),"[1]; rat, in vivo",5.0 H
same,"10% analgesic effect (time), rat","[1]; rat, in vivo",2.4 h
same,"10% analgesic effect (time), text","[1]; rat, in vivo",12 h
same,20% analgesic effect (time),"[1]; rat, in vivo",4.4 H
same,"20% analgesic effect (time), rat","[1]; rat, in vivo",2.1 h
same,50% analgesic effect (time),"[1]; rat, in vivo",2.5
same,"50% analgesic effect (time), rat","[1]; rat, in vivo",1.1 h
same,"10% analgesic effect (time), human",humans,5.0 h
same,"20% analgesic effect (time), human",humans,4.4 h
same,"50% analgesic effect (time), human",humans; 0.8 nmole/kg as printed,2.5 h
same,"analgesic duration, clinical",patients (analgesia),2 to 3 h
CC(C)(C)C(=O)Oc1ccc2c3c1OC1C(O)CCC4(O)C(C2)N(CC2CCC2)CCC314 (stereo not shown) [nalbuphine pivalate],50% analgesic effect (time),[1]; [6],3.2 days
same,20% analgesic effect (time),"[1]; 25 micromole/kg i.m., Table 2",3.6 D
same,10% analgesic effect (time),[1]; [7],3.8 D
O=C(Oc1ccc2c3c1OC1C(O)CCC4(O)C(C2)N(CC2CCC2)CCC314)c1ccccc1 (stereo not shown) [nalbuphine benzoate],50% analgesic effect (time),[1]; [6],3.5 days
same,20% analgesic effect (time),"[1]; 25 micromole/kg i.m., Table 2",4.0 D
same,10% analgesic effect (time),[1]; [7],4.0 D
CCCCCCC(=O)Oc1ccc2c3c1OC1C(O)CCC4(O)C(C2)N(CC2CCC2)CCC314 (stereo not shown) [nalbuphine enanthate],50% analgesic effect (time),[1]; [6],3.9 days
same,20% analgesic effect (time),"[1]; 25 micromole/kg i.m., Table 2",3.4 D
same,10% analgesic effect (time),[1]; [7],3.6 D
Oc1ccc2c(c1)[C@@]13CCCC[C@@]1(O)[C@@H](C2)N(CC1CCC1)CC3 [butorphanol],dose needed to elicit the same analgesic effect,[5],2 mg
CCC(=O)Oc1ccc2c3c1OC1C(O)CCC4(O)C(C2)N(CC2CCC2)CCC314 (stereo not shown) [nalbuphine propionate],50% analgesic effect (time),[1]; [6],0.417 days
same,10% analgesic effect (time),"[1]; 25 micromole/kg i.m., Table 2",12 H
same,20% analgesic effect (time),"[1]; 25 micromole/kg i.m., Table 2",11 H
CCC(=O)Oc1ccc2c3c1OC1C(O)CCC4(O)C(C2)N(CC2CCC2)CCC314 (stereo not shown) [nalbuphine propionate monohydrochloride],water solubility,Water solubility,water soluble
CCCCCCCCCC(=O)OC1(c2ccc(Cl)cc2)CCN(CCCC(=O)c2ccc(F)cc2)CC1 [haloperidol decanoate],dosing interval,[3],1-2 times a month
CN1CC[C@]23c4c5ccc(O)c4O[C@H]2[C@@H](O)C=C[C@H]3[C@H]1C5 [morphine],dose needed to elicit the same analgesic effect,[5],10 mg
CCCCCCCCCCCCCCCCCCCC(=O)Oc1ccc2c3c1OC1C(O)CCC4(O)C(C2)N(CC2CCC2)CCC314 (stereo not shown) [nalbuphine arachidate],duration of analgesic effect in words,"[4]; 25 μM/kg i.m., rats",longer than that of nalbuphine HCl; also recorded: long duration of analgesic effect; also recorded: very long duration of analgesic effect
same,duration of analgesic effect,"[4]; 25 μM/kg i.m., sesame oil suspension, rats",96 to 120 h
same,analgesic effect (significance),[4]; 25 μM/kg i.m.,significant analgesic effects
same,estimated analgesic duration in humans,humans (analgesia),4 to 5 days
C#C[C@]1(OC(=O)CCCCCC)CC[C@H]2[C@@H]3CCC4=CC(=O)CC[C@@H]4[C@H]3CC[C@@]21C [northisterone enanthate],dosing interval in words,[3]; Joshi et al.,once every 2 months
CO[C@]12CC[C@@]3(C[C@@H]1[C@](C)(O)C(C)(C)C)[C@H]1Cc4ccc(O)c5c4[C@@]3(CCN1CC1CC1)[C@H]2O5 [buprenorphine],dose needed to elicit the same analgesic effect,[5],0.3 mg
Oc1ccc2c3c1O[C@H]1[C@@H](O)CC[C@@]4(O)[C@@H](C2)N(CC2CCC2)CC[C@]314 [nalbuphine],amount of released nalbuphine free base (FIG. 15),"between 17 and 28 hours, p<0.05",less in the preparations with sesame oil than with peanut oil ester and the control
same,release times (FIG. 16),nalbuphine base versus hydrochloride,significantly increased
